Experimental data taken from ChEMBL document CHEMBL5291721, “A preclinical secondary pharmacology resource illuminates target-adverse drug reaction associations of marketed drugs” (Nat Commun, 2023).

Tests used:
D(3) dopamine receptor = D(3) dopamine receptor (Homo sapiens, UniProt P35462)
[1] = target: Voltage-gated inwardly rectifying potassium channel KCNH2 (Homo sapiens, UniProt Q12809); type: functional; conditions: read-out: AC50
[2] = target: 3',5'-cyclic-AMP phosphodiesterase 4D (Homo sapiens, UniProt Q08499); type: functional
Sequence of 3',5'-cyclic-AMP phosphodiesterase 4D (Q08499 whole entry): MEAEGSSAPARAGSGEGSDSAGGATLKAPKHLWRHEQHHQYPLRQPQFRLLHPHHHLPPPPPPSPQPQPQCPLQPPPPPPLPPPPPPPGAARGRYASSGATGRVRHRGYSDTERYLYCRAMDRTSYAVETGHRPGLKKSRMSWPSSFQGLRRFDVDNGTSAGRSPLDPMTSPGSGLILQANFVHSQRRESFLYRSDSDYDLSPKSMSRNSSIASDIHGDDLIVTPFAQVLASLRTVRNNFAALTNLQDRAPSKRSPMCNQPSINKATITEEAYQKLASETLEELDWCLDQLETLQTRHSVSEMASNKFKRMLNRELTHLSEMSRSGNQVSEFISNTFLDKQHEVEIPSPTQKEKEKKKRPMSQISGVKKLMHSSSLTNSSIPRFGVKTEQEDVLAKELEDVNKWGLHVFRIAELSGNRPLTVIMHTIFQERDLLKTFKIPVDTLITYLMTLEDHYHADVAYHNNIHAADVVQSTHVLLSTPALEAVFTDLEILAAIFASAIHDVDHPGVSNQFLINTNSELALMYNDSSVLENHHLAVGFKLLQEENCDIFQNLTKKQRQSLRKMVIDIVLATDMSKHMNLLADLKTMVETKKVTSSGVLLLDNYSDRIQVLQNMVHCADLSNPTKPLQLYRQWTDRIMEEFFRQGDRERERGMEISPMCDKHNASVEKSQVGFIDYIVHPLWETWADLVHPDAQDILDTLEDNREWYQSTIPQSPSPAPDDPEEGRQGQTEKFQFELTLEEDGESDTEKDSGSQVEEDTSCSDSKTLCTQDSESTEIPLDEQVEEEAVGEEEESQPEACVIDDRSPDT

[3] = target: 5-hydroxytryptamine receptor 2B (Homo sapiens, UniProt P41595); type: functional, cell-based
Sequence of 5-hydroxytryptamine receptor 2B (P41595 whole entry): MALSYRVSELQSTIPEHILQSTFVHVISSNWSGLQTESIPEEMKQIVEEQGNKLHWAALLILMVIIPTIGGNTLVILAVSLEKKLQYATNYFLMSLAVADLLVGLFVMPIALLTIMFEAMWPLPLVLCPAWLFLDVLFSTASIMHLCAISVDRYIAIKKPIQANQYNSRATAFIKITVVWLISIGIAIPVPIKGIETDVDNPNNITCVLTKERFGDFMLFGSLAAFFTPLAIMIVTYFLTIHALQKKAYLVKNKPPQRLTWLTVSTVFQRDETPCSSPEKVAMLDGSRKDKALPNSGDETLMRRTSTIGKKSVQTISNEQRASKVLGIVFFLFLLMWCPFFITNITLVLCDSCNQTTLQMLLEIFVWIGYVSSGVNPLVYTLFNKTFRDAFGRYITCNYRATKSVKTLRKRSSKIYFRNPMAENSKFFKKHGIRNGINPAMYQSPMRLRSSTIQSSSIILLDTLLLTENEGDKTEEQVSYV

[4] = target: Gamma-aminobutyric acid receptor subunit alpha-1 (Rattus norvegicus, UniProt P62813)
Sequence of Gamma-aminobutyric acid receptor subunit alpha-1 (P62813 whole entry): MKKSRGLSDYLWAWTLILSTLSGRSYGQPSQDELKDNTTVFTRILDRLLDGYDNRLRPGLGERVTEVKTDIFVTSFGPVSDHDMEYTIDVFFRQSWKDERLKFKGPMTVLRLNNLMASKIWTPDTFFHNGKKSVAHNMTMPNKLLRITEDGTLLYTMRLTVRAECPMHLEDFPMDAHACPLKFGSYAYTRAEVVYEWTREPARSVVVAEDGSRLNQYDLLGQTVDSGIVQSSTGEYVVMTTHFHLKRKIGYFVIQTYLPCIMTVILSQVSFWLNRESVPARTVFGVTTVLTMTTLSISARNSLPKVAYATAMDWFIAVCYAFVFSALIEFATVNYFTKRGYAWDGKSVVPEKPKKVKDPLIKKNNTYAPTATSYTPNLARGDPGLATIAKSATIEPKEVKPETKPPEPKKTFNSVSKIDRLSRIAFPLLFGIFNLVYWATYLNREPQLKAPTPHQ

Estrogen receptor = target: T1, Estrogen receptor (Homo sapiens, UniProt P03372)
T1 sequence (P03372 whole entry): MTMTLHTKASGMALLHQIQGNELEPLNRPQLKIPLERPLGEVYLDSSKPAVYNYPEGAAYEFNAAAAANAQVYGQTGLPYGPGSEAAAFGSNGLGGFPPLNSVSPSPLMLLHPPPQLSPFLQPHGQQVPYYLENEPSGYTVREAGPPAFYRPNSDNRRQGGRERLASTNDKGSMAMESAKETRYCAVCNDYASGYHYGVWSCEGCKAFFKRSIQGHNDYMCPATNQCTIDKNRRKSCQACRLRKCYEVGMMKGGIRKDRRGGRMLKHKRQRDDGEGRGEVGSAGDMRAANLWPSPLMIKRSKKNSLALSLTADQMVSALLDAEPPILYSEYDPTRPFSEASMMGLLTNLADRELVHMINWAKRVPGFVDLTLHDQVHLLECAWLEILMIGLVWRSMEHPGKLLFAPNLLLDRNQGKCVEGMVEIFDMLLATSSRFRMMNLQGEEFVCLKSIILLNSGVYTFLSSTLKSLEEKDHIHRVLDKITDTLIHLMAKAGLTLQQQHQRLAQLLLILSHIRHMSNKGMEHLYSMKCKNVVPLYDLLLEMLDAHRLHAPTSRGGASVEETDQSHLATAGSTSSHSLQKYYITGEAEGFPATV

Thromboxane A2 receptor = target: T2, Thromboxane A2 receptor (Homo sapiens, UniProt P21731)
T2 sequence (P21731 whole entry): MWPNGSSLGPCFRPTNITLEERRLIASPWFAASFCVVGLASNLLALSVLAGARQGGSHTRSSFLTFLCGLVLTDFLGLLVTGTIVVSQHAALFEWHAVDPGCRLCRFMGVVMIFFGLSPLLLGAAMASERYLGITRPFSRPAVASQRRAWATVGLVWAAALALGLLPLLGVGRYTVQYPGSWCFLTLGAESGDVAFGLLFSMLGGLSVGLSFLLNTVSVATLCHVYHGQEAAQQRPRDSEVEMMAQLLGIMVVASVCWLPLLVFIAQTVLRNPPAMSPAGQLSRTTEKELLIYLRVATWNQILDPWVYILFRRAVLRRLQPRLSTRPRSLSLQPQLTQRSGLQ

[5] = target: T3, Alpha-2C adrenergic receptor (Homo sapiens, UniProt P18825); type: functional
T3 sequence (P18825 whole entry): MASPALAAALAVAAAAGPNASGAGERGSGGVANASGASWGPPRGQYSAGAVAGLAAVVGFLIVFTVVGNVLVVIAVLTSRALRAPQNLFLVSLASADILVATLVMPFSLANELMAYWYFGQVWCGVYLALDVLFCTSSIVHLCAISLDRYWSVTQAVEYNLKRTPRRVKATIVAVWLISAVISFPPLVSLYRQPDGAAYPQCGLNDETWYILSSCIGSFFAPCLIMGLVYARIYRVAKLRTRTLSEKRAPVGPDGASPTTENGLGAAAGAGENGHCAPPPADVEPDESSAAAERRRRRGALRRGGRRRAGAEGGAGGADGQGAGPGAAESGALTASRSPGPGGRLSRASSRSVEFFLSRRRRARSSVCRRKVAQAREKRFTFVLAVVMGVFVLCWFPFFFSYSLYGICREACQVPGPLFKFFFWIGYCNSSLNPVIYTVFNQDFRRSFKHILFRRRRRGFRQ

[6] = target: T4, 5-hydroxytryptamine receptor 1A (Homo sapiens, UniProt P08908); type: functional, cell-based
T4 sequence (P08908 whole entry): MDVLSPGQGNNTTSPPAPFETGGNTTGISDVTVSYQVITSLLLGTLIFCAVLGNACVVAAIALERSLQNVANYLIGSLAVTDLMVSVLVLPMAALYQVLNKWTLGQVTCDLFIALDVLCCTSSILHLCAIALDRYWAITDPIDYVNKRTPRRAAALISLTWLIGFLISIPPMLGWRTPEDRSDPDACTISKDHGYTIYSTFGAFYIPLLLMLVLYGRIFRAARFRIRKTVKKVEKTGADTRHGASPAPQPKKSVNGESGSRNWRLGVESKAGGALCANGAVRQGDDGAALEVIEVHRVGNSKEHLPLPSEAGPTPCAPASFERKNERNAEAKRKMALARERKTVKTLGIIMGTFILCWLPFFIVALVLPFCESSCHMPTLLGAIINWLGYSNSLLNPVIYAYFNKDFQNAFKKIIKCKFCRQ

[7] = target: T5, Alpha-1A adrenergic receptor (Homo sapiens, UniProt P35348); type: functional, cell-based
T5 sequence (P35348 whole entry): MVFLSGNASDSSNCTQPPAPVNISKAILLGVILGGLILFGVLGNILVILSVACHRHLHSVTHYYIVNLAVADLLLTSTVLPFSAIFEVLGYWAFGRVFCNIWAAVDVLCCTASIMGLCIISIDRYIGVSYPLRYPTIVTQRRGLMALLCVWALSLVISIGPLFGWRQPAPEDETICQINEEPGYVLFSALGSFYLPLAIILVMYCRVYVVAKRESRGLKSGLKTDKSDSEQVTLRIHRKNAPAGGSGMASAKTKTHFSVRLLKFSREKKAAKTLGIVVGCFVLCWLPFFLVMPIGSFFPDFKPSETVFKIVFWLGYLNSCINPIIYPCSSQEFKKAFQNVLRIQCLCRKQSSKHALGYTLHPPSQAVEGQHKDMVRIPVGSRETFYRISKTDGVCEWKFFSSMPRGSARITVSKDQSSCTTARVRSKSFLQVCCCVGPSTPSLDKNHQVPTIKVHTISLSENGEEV
Further: assay procedure not described here.

Sequence of Voltage-gated inwardly rectifying potassium channel KCNH2 (Q12809 whole entry): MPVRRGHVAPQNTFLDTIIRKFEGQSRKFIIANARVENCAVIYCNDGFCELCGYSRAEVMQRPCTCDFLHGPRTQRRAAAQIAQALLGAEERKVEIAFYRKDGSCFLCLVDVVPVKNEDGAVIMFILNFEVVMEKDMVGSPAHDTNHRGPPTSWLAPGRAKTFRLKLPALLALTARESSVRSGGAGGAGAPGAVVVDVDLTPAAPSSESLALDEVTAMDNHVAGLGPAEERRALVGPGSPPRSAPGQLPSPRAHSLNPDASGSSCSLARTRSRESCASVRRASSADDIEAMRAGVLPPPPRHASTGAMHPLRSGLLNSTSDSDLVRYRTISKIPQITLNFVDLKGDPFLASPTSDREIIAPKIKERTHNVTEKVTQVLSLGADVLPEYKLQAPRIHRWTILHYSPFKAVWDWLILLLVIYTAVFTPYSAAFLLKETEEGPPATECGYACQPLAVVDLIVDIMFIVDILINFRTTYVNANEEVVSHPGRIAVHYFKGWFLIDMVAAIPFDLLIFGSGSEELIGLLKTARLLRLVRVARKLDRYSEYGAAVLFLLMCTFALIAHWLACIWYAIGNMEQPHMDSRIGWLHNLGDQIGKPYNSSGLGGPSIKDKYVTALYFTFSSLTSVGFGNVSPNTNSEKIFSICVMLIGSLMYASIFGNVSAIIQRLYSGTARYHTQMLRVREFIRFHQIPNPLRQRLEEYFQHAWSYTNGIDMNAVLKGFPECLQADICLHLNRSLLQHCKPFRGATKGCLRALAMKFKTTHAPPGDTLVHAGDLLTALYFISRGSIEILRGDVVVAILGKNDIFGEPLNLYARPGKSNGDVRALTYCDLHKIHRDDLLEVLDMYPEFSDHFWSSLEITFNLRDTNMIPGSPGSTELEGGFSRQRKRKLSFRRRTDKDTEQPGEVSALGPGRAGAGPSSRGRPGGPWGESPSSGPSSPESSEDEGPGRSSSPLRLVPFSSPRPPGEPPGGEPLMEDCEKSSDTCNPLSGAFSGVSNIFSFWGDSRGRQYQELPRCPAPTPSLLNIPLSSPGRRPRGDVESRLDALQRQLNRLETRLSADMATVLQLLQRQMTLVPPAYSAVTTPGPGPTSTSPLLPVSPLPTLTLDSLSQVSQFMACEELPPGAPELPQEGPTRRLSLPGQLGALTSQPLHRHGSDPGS
Sequence of D(3) dopamine receptor (P35462 whole entry): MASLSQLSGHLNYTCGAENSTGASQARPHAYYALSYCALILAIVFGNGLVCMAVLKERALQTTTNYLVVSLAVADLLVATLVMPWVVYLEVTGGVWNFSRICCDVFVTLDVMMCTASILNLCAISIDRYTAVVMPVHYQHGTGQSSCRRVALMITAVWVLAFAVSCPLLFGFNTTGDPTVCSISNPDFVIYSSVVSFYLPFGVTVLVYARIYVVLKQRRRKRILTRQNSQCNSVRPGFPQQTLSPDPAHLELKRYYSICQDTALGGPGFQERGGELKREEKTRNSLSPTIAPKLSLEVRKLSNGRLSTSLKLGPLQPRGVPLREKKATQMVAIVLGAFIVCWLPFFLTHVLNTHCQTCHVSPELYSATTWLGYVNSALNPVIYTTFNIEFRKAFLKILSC

Row | Compound | AC50 (D(3) dopamine receptor) | AC50 [1] | AC50 [2] | AC50 [3] | AC50 [4] | AC50 (Estrogen receptor) | AC50 (Thromboxane A2 receptor) | AC50 [5] | AC50 [6] | AC50 [7]
1 | CN1C(=O)OC(C)(C)C1=O [TRIMETHADIONE] | > 30 µM | > 30 µM | > 30 µM | > 10 µM | > 10 µM | > 10 µM | > 10 µM | > 10 µM | – | –
2 | Cn1c(=O)c2c(ncn2CC2OCCO2)n(C)c1=O [DOXOFYLLINE] | > 30 µM | > 30 µM | > 30 µM | > 30 µM | > 30 µM | – | > 30 µM | > 30 µM | > 30 µM | > 30 µM
3 | COc1ccc(-c2ccc3cc(C(=O)O)ccc3c2)cc1C12CC3CC(CC(C3)C1)C2 | > 30 µM | > 30 µM | > 30 µM | > 30 µM | > 30 µM | – | > 30 µM | > 30 µM | > 30 µM | > 30 µM
4 | CN1CCN(CC/C=C2/c3ccccc3Sc3ccc(S(=O)(=O)N(C)C)cc32)CC1 [THIOTHIXENE] | 0.0139 µM | 1.63 µM | 4.1 µM | 4.9 µM | > 10 µM | > 30 µM | > 30 µM | – | – | > 30 µM
5 | CCc1c(Cl)c(O)c(Cl)c(O)c1C(=O)O[C@H]1[C@H](O)[C@H](OC)[C@H](OC/C2=C\C=C\C[C@H](O)/C(C)=C/[C@H](CC)[C@@H](O[C@@H]3OC(C)(C)[C@@H](OC(=O)C(C)C)[C@H](O)[C@@H]3O)/C(C)=C/C(C)=C/C[C@@H]([C@@H](C)O)OC2=O)O[C@@H]1C [FIDAXOMICIN] | > 30 µM | > 30 µM | > 30 µM | > 30 µM | > 10 µM | > 30 µM | > 30 µM | > 30 µM | – | –
6 | CCCCc1ncc(/C=C(\Cc2cccs2)C(=O)O)n1Cc1ccc(C(=O)O)cc1 [EPROSARTAN] | > 10 µM | > 30 µM | > 10 µM | > 10 µM | > 10 µM | – | > 10 µM | > 10 µM | > 10 µM | > 30 µM
7 | CCCc1nc(C(C)(C)O)c(C(=O)OCc2oc(=O)oc2C)n1Cc1ccc(-c2ccccc2-c2nnn[nH]2)cc1 [OLMESARTAN MEDOXOMIL] | > 10 µM | > 30 µM | 3.9 µM | > 10 µM | > 10 µM | – | > 50 µM | > 10 µM | > 10 µM | > 30 µM
8 | COc1ccc(CCN(C)CCCC(C#N)(c2cc(OC)c(OC)c(OC)c2)C(C)C)cc1OC (stereo not given) [GALLOPAMIL] | 3.3 µM | 1.9 µM | 9.2 µM | 0.86 µM | > 30 µM | – | > 30 µM | 7.6 µM | 11 µM | > 30 µM
9 | C/C(O)=C(\C#N)C(=O)Nc1ccc(C(F)(F)F)cc1 [TERIFLUNOMIDE] | > 30 µM | > 30 µM | > 30 µM | > 30 µM | – | – | – | > 30 µM | > 30 µM | > 30 µM
10 | COc1ccccc1N1CCN(CCCNc2cc(=O)n(C)c(=O)n2C)CC1 | 1.4 µM | > 30 µM | > 10 µM | 20 µM | > 30 µM | > 30 µM | > 30 µM | – | – | > 30 µM
11 | COc1ccc2c3c1O[C@H]1C(=O)CC[C@@]4(O)[C@@H](C2)N(C)CC[C@]314 [OXYCODONE] | > 30 µM | > 30 µM | > 30 µM | > 30 µM | > 30 µM | > 30 µM | > 30 µM | – | – | > 30 µM
12 | CC(C[N+](C)(C)C)OC(N)=O (stereo not given) [BETHANECHOL] | > 30 µM | > 30 µM | > 30 µM | > 10 µM | > 10 µM | > 10 µM | > 10 µM | > 10 µM | – | –
13 | CC(CC(c1ccccc1)c1ccccc1)NC(C)(C)C (stereo not given) [TERODILINE] | > 30 µM | – | > 30 µM | > 30 µM | > 30 µM | > 30 µM | > 30 µM | > 30 µM | – | > 30 µM
14 | CO/N=C(\C(=O)N[C@@H]1C(=O)N2C(C(=O)O)=C(CSc3nnnn3C)CS[C@H]12)c1csc(N)n1 [CEFMENOXIME] | – | > 30 µM | > 30 µM | > 30 µM | – | > 30 µM | – | > 30 µM | – | > 30 µM
15 | CCCN(CCC)C(=O)C(CCC(=O)O)NC(=O)c1ccccc1 (stereo not given) [PROGLUMIDE] | > 30 µM | > 30 µM | > 30 µM | > 10 µM | > 10 µM | – | > 30 µM | > 30 µM | > 10 µM | –
16 | CC(C)(C)c1cc(C(C)(C)C)c(NC(=O)c2c[nH]c3ccccc3c2=O)cc1O [IVACAFTOR] | > 30 µM | > 30 µM | > 30 µM | > 10 µM | > 10 µM | > 30 µM | 22 µM | > 10 µM | – | –
17 | O=C(NCCNCC(O)COc1ccc(O)cc1)N1CCOCC1 (stereo not given) [XAMOTEROL] | > 30 µM | > 30 µM | > 30 µM | > 30 µM | > 30 µM | – | > 30 µM | > 30 µM | > 30 µM | > 30 µM
18 | Cc1cccc(C(C)c2cnc[nH]2)c1C (stereo not given) [MEDETOMIDINE] | > 30 µM | 17.8 µM | > 30 µM | > 30 µM | > 10 µM | – | > 30 µM | 1.3 µM | > 30 µM | –
19 | CCCC(=O)O[C@]1(C(=O)CO)CC[C@H]2[C@@H]3CCC4=CC(=O)CC[C@]4(C)[C@H]3[C@@H](O)C[C@@]21C [HYDROCORTISONE BUTYRATE] | > 30 µM | > 30 µM | > 30 µM | > 10 µM | > 10 µM | – | > 10 µM | > 10 µM | > 10 µM | –
